Test system: adrenal angiotensin II receptors
Experiment: Displacement of radiolabelled ligand [^125 I]-SIAII specifically bound to rat adrenal angiotensin II receptors
Format: binding
Settings: rat adrenal homogenate, 60 min at 25° C.
Procedure: The affinity of the products of the examples for angiotensin II receptors is assessed by a technique of displacement of a radiolabelled ligand specifically bound to the adrenal angiotensin II receptors in the rat.
An aliquot of a rat adrenal homogenate is incubated in the presence of a single concentration of [^125 I]-SIAII(Sar^1 Tyr^4, Ile^8 -angiotensin II) which is an angiotensin II receptor antagonist, and two concentrations of competitive agents ([…]) for 60 min at 25° C.
The reaction is stopped by adding buffer, followed by rapid filtration through glass-paper filters. The non-specific binding is determined in the presence of angiotensin II.
The results are expressed, for the concentrations tested, as a percentage displacement of the radiolabelled ligand specifically bound to the adrenal angiotensin II receptors.

SMILES	% displacement of the labelled ligand (1E-5M, 10 µM) [%]	% displacement of the labelled ligand (1E-7M, 0.1 µM) [%]
CCCc1nc(C)n2nc(C)nc2c1Cc1ccc(-c2ccccc2-c2nnn[nH]2)cc1 [Example 74, 7-n-Propyl-2,5-dimethyl-8-{[2'-(5-tetrazolyl)-4-biphenylyl}methyl]-1,2,4-triazolo[1,5-c]pyrimidine]	69	54
CCc1nc(C)n2nc(C)nc2c1Cc1ccc(-c2ccccc2-c2nn[nH]n2)cc1 [Example 90, 7-Ethyl-2 , 5-dimethyl-8-{[2 '-(5-tetrazolyl)-4-biphenylyl]methyl}-i, 2,4-triazolo[1,5-c]pyrimidine]	63	48
CCCc1nc(C)n2nc(CC)nc2c1Cc1ccc(-c2ccccc2-c2nnn[nH]2)cc1 [Example 78, 7-n-Propyl-5-methyl-8-{[2 '(5-tetrazolyl)-4-biphenylyl]methyl}-2-ethyl-1,2,4-triazolo[1,5-c]pyrimidine]	67	52
CCCc1nc(C)n2nc(COC)nc2c1Cc1ccc(-c2ccccc2-c2nnn[nH]2)cc1 [Example 152, 7-n-Propyl-5-methyl-2-methoxymethyl-8-{[2'-(5-tetrazolyl)-4-biphenylyl]methyl}-1,2,4-triazolo[1,5-c]pyrimidine]	69	57
CCCc1nc(C)n2nc(NC)nc2c1Cc1ccc(-c2ccccc2-c2nnn[nH]2)cc1 [Example 80, 7-n-Propyl-5-methyl-2-methylamino-8-{[2'-(5-tetrazolyl)-4-biphenylyl]methyl}-1,2,4-triazolo [1,5-c]pyrimidine]	74	59
CCCCc1nc(C)n2c(=O)[nH]nc2c1Cc1ccc(-c2ccccc2-c2nnn[nH]2)cc1 [Example 36, 7-n-Butyl-5-methyl-8-{[2'-(5-tetrazolyl)-4-biphenylyl]methyl}-1,2,4-triazolo[4,3-c]pyrimidin-3(2H)-one]	65	43
CCc1nc(C)n2[nH]c(=O)nc2c1Cc1ccc(-c2ccccc2-c2nnn[nH]2)cc1 [Example 97, 7-Ethyl-5-methyl-8-{[2'(5-tetrazolyl)-4-biphenylyl]methyl}-1,2,4-triazolo[1,5-c]pyrimidin-2(3H)-one]	60	38
CCCc1nc(C)n2ncnc2c1Cc1ccc(-c2ccccc2-c2nnn[nH]2)cc1 [Example 71, 7-n-propyl-5-methyl-8-{[2'-(5-tetrazolyl)-4-biphenylyl]methyl}-1,2,4-triazolo[1,5-c]pyrimidine]	73	60
CCCCc1nc(C)n2[nH]c(=O)nc2c1Cc1ccc(-c2ccccc2-c2nnn[nH]2)cc1 [Example 112, 7-n-Butyl-5-methyl-8-{[2'(5-tetrazolyl)-4-biphenylyl]methyl}-1,2,4-triazolo[1,5-c]pyrimidin-2(3H)-one]	60	41
CCCc1nc(C)n2nc(N)nc2c1Cc1ccc(-c2ccccc2-c2nnn[nH]2)cc1 [Example 107, 7-n-Propyl-5-methyl-2-amino-8-{[2'-(5-tetrazolyl)-4-biphenylyl]methyl}-1,2,4-triazolo[1,5-c]pyrimidine]	71	58
CCCc1nc(C)n2nc(CC(=O)OCC)nc2c1Cc1ccc(-c2ccccc2-c2nnn[nH]2)cc1 [Example 146, Ethyl [7-n-propyl-5-methyl-8-{[2'-(5-tetrazolyl)-4-biphenylyl]methyl}-1,2,4-triazolo[1,5-c]pyrimidin-2-yl]acetate]	74	56
CCCc1nc(C)n2c(=O)[nH]nc2c1Cc1ccc(-c2ccccc2-c2nnn[nH]2)cc1 [Example 19, 7-n-Propyl-5-methyl-8-{[2'-(5-tetrazolyl)-4-biphenylyl]methyl}-1,2,4-triazolo[4,3-c]pyrimidin-3(2H)-one]	66	48
CCCc1nc(CC)n2[nH]c(=O)nc2c1Cc1ccc(-c2ccccc2-c2nnn[nH]2)cc1 [Example 138, 7-n-Propyl-5-ethyl-8-{[2'-(5-tetrazolyl)-4-biphenylyl]methyl}-1,2,4-triazolo[1,5-c]pyrimidin-2(3H)-one]	61	17
CCCc1nc(C)n2c(S)nnc2c1Cc1ccc(-c2ccccc2-c2nnn[nH]2)cc1 [Example 68, 7-n-Propyl-5-methyl-3-mercapto-8-{[2'-(5-tetrazolyl)-4-biphenylyl]methyl}-1,2,4-triazolo[4,3-c]pyrimidine]	67	33
CCCc1nc(C)n2nc(S)nc2c1Cc1ccc(-c2ccccc2-c2nnn[nH]2)cc1 [Example 42, 7-n-propyl-5-methyl-2-mercapto-8-{[2'-(5-tetrazolyl)-4-biphenylyl]methyl}-1,2,4-triazolo[1,5-c]pyrimidine]	75	46
CCCc1nc(C)n2nc(C(=O)OCC)nc2c1Cc1ccc(-c2ccccc2-c2nnn[nH]2)cc1 [Example 109, Ethyl 7-n-propyl-5-methyl-8-{[2'-(5-tetrazolyl)-4-biphenylyl]methyl}-1,2,4-triazolo[1,5-c]pyrimidine-2-carboxylate]	67	46
CCCc1nc(C)n2[nH]c(=O)nc2c1Cc1ccc(-c2ccccc2-c2nnn[nH]2)cc1 [Example 20, 7-n-Propyl-5-methyl-8-{[2'-(5-tetrazolyl)-4-biphenylyl]methyl}-1,2,4-triazolo[1,5-c]pyrimidin-2(3H)-one]	60	45
CCCc1nc(C)n2c(=O)n(CCO)nc2c1Cc1ccc(-c2ccccc2-c2nnn[nH]2)cc1 [Example 25, 2-[7-n-Propyl-5-methyl-3-oxo-8-{[2'-(5-tetrazolyl)-4-biphenylyl]methyl}-2,3-dihydro-1,2,4-triazolo[4,3-c]pyrimidin-2-yl]ethanol]	68	54
